PubChem BioAssay (NCI)
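Growth conditions: 96-well plates. Treatment: test compound, 48 hours, 5 concentrations. Analysis: linear interpolation between bracketing concentrations; unreached endpoints set to highest concentration. TGI denotes the concentration required for complete inhibition of growth.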

Experiments:
Test in all cases: NCI-60 cell line screen, 48 h
TK-10 renal = tested on: TK-10 renal
A549 NSCLC = tested on: A549 NSCLC
HT29 colon = tested on: HT29 colon
RPMI-8226 leukemia = tested on: RPMI-8226 leukemia
LOX IMVI melanoma = tested on: LOX IMVI melanoma
CCRF-CEM leukemia = tested on: CCRF-CEM leukemia
MCF7 breast = tested on: MCF7 breast
SF-295 CNS = tested on: SF-295 CNS
SK-OV-3 ovarian = tested on: SK-OV-3 ovarian
OVCAR-5 ovarian = tested on: OVCAR-5 ovarian
NCI-H226 lung = tested on: NCI-H226 lung
SN12C renal = tested on: SN12C renal
MALME-3M melanoma = tested on: MALME-3M melanoma
HOP-62 NSCLC = tested on: HOP-62 NSCLC
U251 CNS = tested on: U251 CNS
NCI-H460 lung = tested on: NCI-H460 lung
NCI-H23 lung = tested on: NCI-H23 lung
MDA-MB-231 breast = tested on: MDA-MB-231 breast
HL-60(TB) leukemia = tested on: HL-60(TB) leukemia
ACHN renal = tested on: ACHN renal
HCC-2998 colon = tested on: HCC-2998 colon
DU-145 prostate = tested on: DU-145 prostate
HCT-116 colon = tested on: HCT-116 colon
RXF 393 renal = tested on: RXF 393 renal
UO-31 renal = tested on: UO-31 renal
SK-MEL-28 melanoma = tested on: SK-MEL-28 melanoma
KM12 colon = tested on: KM12 colon
SNB-19 CNS = tested on: SNB-19 CNS
HCT-15 colon = tested on: HCT-15 colon
COLO 205 colon = tested on: COLO 205 colon
SW-620 colon = tested on: SW-620 colon
OVCAR-8 ovarian = tested on: OVCAR-8 ovarian
A498 renal = tested on: A498 renal
K-562 leukemia = tested on: K-562 leukemia
SNB-75 CNS = tested on: SNB-75 CNS
UACC-257 melanoma = tested on: UACC-257 melanoma
MDA-MB-435 = tested on: MDA-MB-435
M14 melanoma = tested on: M14 melanoma
HOP-92 NSCLC = tested on: HOP-92 NSCLC
SK-MEL-5 melanoma = tested on: SK-MEL-5 melanoma
SF-539 CNS = tested on: SF-539 CNS
HS 578T breast = tested on: HS 578T breast
MOLT-4 leukemia = tested on: MOLT-4 leukemia
SR leukemia = tested on: SR leukemia
SF-268 CNS = tested on: SF-268 CNS
OVCAR-4 ovarian = tested on: OVCAR-4 ovarian
786-0 renal = tested on: 786-0 renal
EKVX NSCLC = tested on: EKVX NSCLC
NCI/ADR-RES ovarian = tested on: NCI/ADR-RES ovarian
CAKI-1 renal = tested on: CAKI-1 renal
SK-MEL-2 melanoma = tested on: SK-MEL-2 melanoma
NCI-H522 lung = tested on: NCI-H522 lung
PC-3 prostate = tested on: PC-3 prostate
BT-549 breast = tested on: BT-549 breast
IGROV1 ovarian = tested on: IGROV1 ovarian
OVCAR-3 ovarian = tested on: OVCAR-3 ovarian
T-47D breast = tested on: T-47D breast
UACC-62 melanoma = tested on: UACC-62 melanoma

Measured: TGI

COc1cc(C(=O)O[C@H]2CCC3CCC2N3C)cc(OC)c1OC (stereo not given in full)
not listed: CAKI-1 renal | SK-MEL-2 melanoma | NCI-H522 lung | PC-3 prostate | BT-549 breast | IGROV1 ovarian | OVCAR-3 ovarian | T-47D breast | UACC-62 melanoma
> 100 µM: all other assays above

O=C(NCCn1ccnn1)Nc1ccccc1
not listed: SK-OV-3 ovarian | NCI-H226 lung | HCT-116 colon | RXF 393 renal | UO-31 renal | A498 renal | SF-539 CNS | HS 578T breast | OVCAR-4 ovarian | OVCAR-3 ovarian | T-47D breast | UACC-62 melanoma
> 100 µM: all other assays above

O=C(OCc1ccccc1)c1nc2ccccc2n1S(=O)(=O)c1ccccc1
not listed: MCF7 breast | SR leukemia | NCI-H522 lung
> 100 µM: all other assays above
